Experimental findings from patent publication US9340577B2, “HLA binding motifs and peptides and their uses” (priority 1992, dated 2016) are described below.

Common to all, as to assay: biochemical
Format in all cases: binding

The target of experiment [1] is A*0206 (Homo sapiens, UniProt P04439, D140Y/D185E/D98H/E176V/E277Q/F33Y/G131W/G231S/I119V/I121R/I166T/I218V/L300P/L318F/N151K/N90K/P208A/P217A/Q86G/Q94H/R138H/R169H/T345S).
Experiment [2] concerns the target HLA-A*0201 (HLA-A2.1) (Homo sapiens, UniProt P04439, D140Y/D185E/D98H/E176V/E277Q/G131W/G231S/I119V/I121R/I166T/I218V/L300P/L318F/N151K/N90K/P208A/P217A/Q86G/Q94H/R138H/R169H/T345S).
Experiment [3] has as its target A*0202 (Homo sapiens, UniProt P04439, D140Y/D185E/D98H/E176V/E277Q/G131W/G231S/I119L/I121R/I166T/I218V/L180W/L300P/L318F/N151K/N90K/P208A/P217A/Q67R/Q86G/Q94H/R138H/R169H/T345S).
For experiment [4], the target named is A*6802 (Homo sapiens, UniProt P04439, A269V/D140Y/D185E/E176V/E277Q/E87N/F33Y/G231S/I121R/I166T/I218V/L180W/L300P/L318F/N151K/P208A/P217A/Q86R/R138H/R169H/S129P/T345S/V36M).
Experiment [5] addresses A*0203 (Homo sapiens, UniProt P04439, A173T/D140Y/D185E/D98H/E277Q/G131W/G231S/I119V/I121R/I166T/I218V/L180W/L300P/L318F/N151K/N90K/P208A/P217A/Q86G/Q94H/R138H/R169H/T345S).

pIC50: −log10 of the molar value. No end group written: not given here.

For QQIEFITFL [Peptide 1578.10], the pIC50 was 7.35 in experiment [1]; 7.38 in experiment [2]; 8.23 in experiment [3]; 7.03 in experiment [4]; 7.70 in experiment [5].
For VLAEAMSHV [Peptide 1516.08] the same measures were 7.05, 7.54, 8.72, 6.52 and 8.26.
For IVNTTYLWWV [Peptide 9013.0196] the same measures were 7.04, 5.23, 5.84, 7.15 and 6.41.
FQYAQLADV [Peptide 1578.36]: the negative-log IC50 (pIC50) in experiment [1] was 7.49; in experiment [2], 7.38; in experiment [3], 8.43; in experiment [4] it was 4.77; in experiment [5] it was 7.92.
In the same order, the values of KLTFLCVTL [Peptide 1516.14] are 6.91, 7.72, 8.52, under 4.70 and 7.39.
In the case of MTRNPPVPV [Peptide 1539.02], the pIC50 in experiment [1] was under 4.70; in experiment [2], 5.04; in experiment [3] it was 5.94; in experiment [4] it was 6.93; in experiment [5] it was 7.46.
For the molecule GLTVGIMIGVL [Peptide 9013.0343], the pIC50 in experiment [1] was 4.94; in experiment [2], 5.30; in experiment [3] it was 6.04; in experiment [4], 5.58; in experiment [5] it was 6.54.
As to RILQRLLFV [Peptide 1525.27], the negative-log IC50 (pIC50) is 7.14 in experiment [1]; 7.19 in experiment [2]; 5.80 in experiment [3]; under 4.70 in experiment [4]; 7.96 in experiment [5].
Consider LLLTASLLV [Peptide 9013.0002], for which the negative logarithm of the IC50 (pIC50) in experiment [1] is 7.10; in experiment [2], 7.55; in experiment [3] it was 5.87; in experiment [4], under 4.70; in experiment [5] it was 6.53.
For IQNDTGFYTV [Peptide 9013.0149] the same measures were 7.20, 6.22, 7.70, 5.05 and 7.51.
In the same order, the values of ILYPNASLLI [Peptide 9013.0145] are 6.60, 7.06, 8.89, 5.51 and 8.55.
For RILQQLLLI [Peptide 1525.20] the same measures were 7.09, 6.70, 5.33, under 4.70 and 6.00.
TVTTITVYV [Peptide 9013.0068]: the negative-log IC50 (pIC50) in experiment [1] is 7.02; in experiment [2], 6.99; in experiment [3], 7.92; in experiment [4] it was 8.52; in experiment [5], 7.24.
On to PQYSWRINGV [Peptide 9013.0235], for which the pIC50 in experiment [1] is under 4.70; in experiment [2], under 4.70; in experiment [3], 5.88; in experiment [4], under 4.70; in experiment [5] it was 7.60.
As for ALYSWFVNGT [Peptide 9013.0173], the pIC50 in experiment [1] is 6.06; in experiment [2], 6.18; in experiment [3], 8.05; in experiment [4], under 4.70; in experiment [5], 8.44.
In the same order, the values of FLVAFKQFL [Peptide 1578.42] are 7.09, 7.26, 9.37, 5.85 and 8.33.
For GTQQATPGPV [Peptide 9013.0142] the same measures were under 4.70, under 4.70, under 4.70, under 4.70 and 7.44.
`CC[C@H](C)[C@H](N)C(=O)N[C@@H](CCSC)C(=O)N[C@H](C(=O)NCC(=O)N[C@H](C(=O)N[C@@H](CC(C)C)C(=O)N[C@H](C(=O)NCC(=O)N[C@H](C(=O)N[C@@H](C)C(=O)N[C@H](C(=O)O)C(C)C)C(C)C)C(C)C)C(C)C)[C@@H](C)CC` [Peptide 9013.0346]: the pIC50 is 7.21 in experiment [1]; 7.12 in experiment [2]; 7.74 in experiment [3]; 5.05 in experiment [4]; 7.26 in experiment [5].
In the same order, the values of YLCGIQNSVSA [Peptide 9013.0338] are 6.29, 6.68, 7.68, 5.04 and 6.74.
Turning to CQAHNSDTGV [Peptide 9013.0190], the pIC50 in experiment [1] is 5.81; in experiment [2], under 4.70; in experiment [3], 6.47; in experiment [4], under 4.70; in experiment [5], 6.33.
Consider ALAEAMSQA [Peptide 1539.04], for which the pIC50 in experiment [1] was 7.77; in experiment [2] it was 7.82; in experiment [3], 8.72; in experiment [4], 5.52; in experiment [5], 7.70.
Take LLLSNDNRTL [Peptide 9013.0205]: the pIC50 in experiment [1] was under 4.70; in experiment [2], 5.09; in experiment [3], 6.52; in experiment [4], under 4.70; in experiment [5] it was 5.38.
Take LLIESTPFNVA [Peptide 9013.0268]: the pIC50 in experiment [1] is 6.97; in experiment [2], 6.92; in experiment [3], 8.48; in experiment [4], under 4.70; in experiment [5] it was 8.46.
In the same order, the values of TVNNSGSYV [Peptide 9013.0064] are under 4.70, 4.78, 6.51, 7.36 and 7.41.
For NVAEGKEVV [Peptide 9013.0015] the same measures were under 4.70, under 4.70, 5.88, 6.45 and 5.32.
For RLTVTTITV [Peptide 9013.0067] the same measures were 6.15, 6.97, 7.66, 4.89 and 7.44.
FLSALKLFL [Peptide 1578.17]: the pIC50 is 7.35 in experiment [1]; 7.77 in experiment [2]; 8.55 in experiment [3]; 5.67 in experiment [4]; 7.96 in experiment [5].
In the same order, the values of TLKLTIEST [Peptide 9013.0010] are under 4.70, 4.74, 7.10, under 4.70 and 7.62.
For RILQHLLFA [Peptide 1525.24] the same measures were 7.96, 6.80, 6.66, under 4.70 and 7.29.
Consider FLSGCVISYV [Peptide 1578.32], for which the negative logarithm of the IC50 (pIC50) in experiment [1] was 7.17; in experiment [2], 7.37; in experiment [3], 8.57; in experiment [4] it was 6.99; in experiment [5], 8.13.
In the same order, the values of FLQSTQELFI [Peptide 9013.0179] are 5.96, 7.02, 8.43, under 4.70 and 7.23.
For ALYWYRTGL [Peptide 1578.30] the same measures were 4.94, 5.30, 8.09, under 4.70 and 7.64.
In the case of YTNWGEIYI [Peptide 1578.49], the negative logarithm of the IC50 (pIC50) is 6.15 in experiment [1]; 6.53 in experiment [2]; 8.00 in experiment [3]; 7.62 in experiment [4]; 7.09 in experiment [5].
For VIKSDLVNEEV [Peptide 9013.0278] the same measures were under 4.70, under 4.70, 7.24, under 4.70 and 5.76.
For YTCGIQNSV [Peptide 9013.0096] the same measures were 6.47, 5.71, 7.15, 6.85 and 6.51.
In the same order, the values of LQLSNDNRTLV [Peptide 9013.0307] are 7.00, 4.89, 5.86, under 4.70 and 5.28.
As for IIQNDTGFYV [Peptide 9013.0146], the negative-log IC50 (pIC50) is 6.70 in experiment [1]; 6.81 in experiment [2]; 7.60 in experiment [3]; 5.59 in experiment [4]; 6.26 in experiment [5].

Broadly, the pIC50 is −log10 of the IC50, conventionally taken in molar units. The low end stands for a large IC50, the high end for a small IC50.
